Values of other authors in patent publication US20200360292A1, “OIL-SOLUBLE DRUG CONTAINING COMPOSITIONS AND METHODS OF USE THEREOF” (priority 2019, published 2020).

Conditions: inhalation

For CCCCCc1cc(O)c2c(c1)OC(C)(C)[C@@H]1CCC(C)=C[C@@H]21 [THC, Δ9-tetrahydrocannabinol], which “Time to maximum plasma concentration” value is on record?
The value was “within minutes”.
